# Assay results: paper PMC10667233, “New cytotoxic dammarane type saponins from Ziziphus spina-christi” (Scientific Reports, 2023)
# Read-outs that look alike come from different tables or passages of the source.
# Legend:
# MDA-MB-231 = assay: MTS cell viability, MDA-MB-231 breast cancer cells; assay type: cell-based; conditions: Homo sapiens, read-out: IC50 (µg/mL) values
# Description: (§1) A549, U87, MDA-MB-231, and CT-26 cells were purchased from American Type Culture Collection (ATCC) (Manassas, VA, USA). The cells, A549 and CT-26 were cultured in RPMI-1640 supplemented with 1% Pen/Strep (100 U mL^–1, Gibco, Carlsbad, CA) and 10% FBS (Atlanta Biologicals, Flowery Branch, GA). While MDA-MB-231 and U87 cells were cultured in DMEM medium supplemented with 1% Pen/Strip and 10% FBS. Cells were incubated at 37 °C and 5% CO2 in humidified incubator (Sanyo Scientific Autoflow, Hudson, MA).
# (§2) A549, U87, MDA-MB-231, and CT-26 cancer cells were plated in 96-well plates at a density of 2X10^4 cells/well in 100 μL of medium before the addition of different concentrations of the plant extracts. Untreated control group was incubated with^-100 µL/well of fresh media and^-methanol. After 24 h., the medium was aspirated and replaced by-100 µL of fresh media, and 20 µL of MTS^-reagent in each well (CellTiter 96^-Aqueous One^-Solution cell^-proliferation assay, Promega^-Corporation, Madison,^-WI,^-USA). The plates were then incubated at 37 °C with 5% CO2 for 2 h. The absorbance was measured at 490 nm using a Spectramax plus 384 Microplate reader (Molecular Devices, Sunnyvale, CA, USA). Relative cell viability values were expressed as the percentage of the absorbance from the treated wells compared to the control wells (untreated), given that the control wells viability was set to 100%. The cells were examined under a cell imaging system (EVOS FL Digital Microscope) using a 20X objective as well before getting rid of the plates. The half-maximal inhibitory concentrations (IC50) of pure compounds for four […] cancer cell lines were calculated.
# (§3) Figure 3 The anticancer activities of the three pure compounds (1–3) isolated from Ziziphus spina-christi using the MTS assay on glioblastoma, breast cancer, lung, and colorectal carcinoma cells. Cancer cells lines A549 (a) U87 (b), MDA-MB-231 (c) and CT-26 […] were tested. […] Cells were stained with MTS reagents and cell survival was quantitated using the spectramax plate reader. […]
# U87 = assay: MTS cell viability, U87 glioblastoma cells; assay type: cell-based; conditions: Homo sapiens, U-87 MG, 24 h, read-out: IC50 (µg/mL) values
# Description: as §1, §2, §3
# CT-26 = assay: MTS cell viability, CT-26 colorectal carcinoma cells; assay type: cell-based; conditions: read-out: IC50 (µg/mL) values
# Description: as §1, §2, §3
# A549 = assay: MTS cell viability, A549 lung cancer cells; assay type: cell-based; conditions: Homo sapiens, read-out: IC50 (µg/mL) values
# Description: as §1, §2, §3
# [1] = test system: breast cancer cell line MDA-MB-231; parameters: method as in PMID 19960417; conditions: 50 μmol/l, MDA-MB-231 in vitro; cited from earlier work
# sarcoma S180 = test system: sarcoma S180; parameters: method as in PMID 19960417; conditions: 50 μmol/kg, mice implanted with sarcoma S180; cited from earlier work
# EBV-EA = conditions: cited from earlier work
# A549 cells = test system: A549 cells; parameters: method as in PMID 26922140; conditions: concentration-dependent; cited from earlier work
molecule,measurement,setting,value
"CC(C)=CC1CC(C)(O)C2C3CCC4C5(C)CCC(OC6OCC(O)C(OC7OC(CO)C(OC(=O)C=Cc8ccc(OC(=O)C(=O)O)cc8)C(O)C7O)C6OC6OC(C)C(O)C(O)C6O)C(C)(C)C5CCC4(C)C34COC2(C4)O1 (stereo not drawn) [Compound 2, Christinin F]",IC50,"MDA-MB-231; MDA-MB-231, MTS, 24 h",5.81 ± 0.087 µg/mL
same,IC50,"U87; U87, MTS",4.16 ± 0.87 µg/mL
same,IC50,"CT-26; CT26, CT-26, MTS, 24 h",7.21 ± 0.35 µg/mL
same,IC50,"A549; A549, MTS, 24 h",4.89 ± 0.93 µg/mL
CC(C)=CC1C[C@](C)(O)[C@@H]2[C@@H]3CC[C@@H]4[C@@]5(C)CC[C@H](O[C@@H]6OC[C@H](O)[C@H](O[C@@H]7O[C@H](CO)[C@@H](O)[C@H](O)[C@H]7O)[C@H]6O[C@@H]6O[C@@H](CO)[C@H](O)[C@H]6O)C(C)(C)[C@@H]5CC[C@@]4(C)[C@]34CO[C@@]2(C4)O1 (stereo partly drawn) [bacopaside VII],"adhesion, migration, and matrigel invasion (in words)",[1],markedly reduced
same,inhibition,sarcoma S180,84.13%
bacopaside É,"adhesion, migration, and matrigel invasion (in words)",[1],markedly reduced
same,inhibition,sarcoma S180,90.52%
C=C(C)[C@@H]1CC[C@]2(C)[C@H](CC[C@@H]3[C@@H]([C@@](C)(O)CCC=C(C)C)CC[C@]32C)[C@@]1(C)CCC(=O)O [dammarenolic acid],IC50,EBV-EA,226 mol ratio/32 pmol TPA
"CC(C)=CC1CC(C)(O)C2C3CCC4C5(C)CCC(OC6OCC(O)C(OC7OC(CO)C(OC(=O)C=Cc8ccc(O)cc8)C(O)C7O)C6OC6OC(C)C(O)C(O)C6O)C(C)(C)C5CCC4(C)C34COC2(C4)O1 (stereo not drawn) [Compound 1, Christinin E]",IC50,"MDA-MB-231; MDA-MB-231, MTS, 24 h",6.02 ± 1.5 µg/mL
same,IC50,"U87; U87, MTS",5.7 ± 1.63 µg/mL
same,IC50,"CT-26; CT26, CT-26, MTS, 24 h",0.7 ± 0.049 µg/mL
same,IC50,"A549; A549, MTS, 24 h",9.53 ± 0.01 µg/mL
"CC(C)=CC1CC(C)(O)C2C3CCC4C5(C)CCC(OC6OCC(O)C(OC7OC(CO)C(O)C(O)C7O)C6OC6OC(C)C(O)C(O)C6O)C(C)(C)C5CCC4(C)C34COC2(C4)O1 (stereo not drawn) [Compound 3, christinin A]",IC50,"MDA-MB-231; MDA-MB-231, 24 h",9.3 ± 0.19 µg/mL
same,IC50,U87,7.28 ± 0.56 µg/mL
same,IC50,"CT-26; CT26, 24 h",5.47 ± 1.3 µg/mL
same,IC50,"A549; A549, 24 h",5.67 ± 1.05 µg/mL
gypenoside Jh1,cytotoxicity (in words),A549 cells,strong cytotoxicity
